Legend:
Assay type in all cases: cell-based
[1] = tested on: Barley scald fungus (Rhynchosporium secalis); assay: Test Example 3: control test against barley scald fungus, titer plate growth; settings: 150 ppm in DMSO, 1 μL + 150 μL PDB broth; 18° C., 7 days; absorbance at 550 nm
Procedure: (§1) The untreated groups in the Test Example 3, the Test Example 5 and the Test Example 6 represents a treated group in which the procedures are carried out under the same conditions as those described in each of Test Examples except that DMSO is dispensed in place of a diluted DMSO solution containing the Present compound. The untreated groups in the Test Example 7 and the Test Example 15 represents a test in which the procedures are carried out under the same conditions as those described in each of the Test Examples except that DMSO is dispensed in place of a diluted DMSO solution containing the present compound. […]
(§2) The present compound 77 was diluted with DMSO so as to contain 150 ppm, and 1 μL of the dilution solutions were dispensed into titer plate (96 well), and thereafter, thereto was then dispensed 150 μL of a potato dextrose broth (PDB broth) to which conidia of Rhynchosporium secalis were inoculated in advance. This plate was cultured at 18° C. for 7 days, thereby allowing Rhynchosporium secalis to undergo proliferation, and the absorbance at 550 nm of each well of the titer plate was then measured to determine a degree of growth of the Rhynchosporium secalis.

[2] = tested on: Peach scab fungus (Cladosporium carpophilum); assay: Test Example 5: control test against peach scab fungus, titer plate growth; settings: 150 ppm in DMSO, 1 μL + 150 μL PDB broth; 18° C., 5 days; absorbance at 550 nm
Procedure: as §1
as §2, with “of Cladosporium carpophilum” for “of Rhynchosporium secalis”, “for 5” for “for 7”, “allowing Cladosporium carpophilum” for “allowing Rhynchosporium secalis”, “the Cladosporium carpophilum.” for “the Rhynchosporium secalis.”

[3] = tested on: Rice brown spot fungus (Cochliobolus miyabeanus); assay: Test Example 6: control test against rice brown spot fungus, titer plate growth; settings: 150 ppm in DMSO, 1 μL + 150 μL YB liquid medium; 23° C., 3 days; absorbance at 550 nm
Procedure: The untreated groups in the Test Example 3, the Test Example 5 and the Test Example 6 represents a treated group in which the procedures are carried out under the same conditions as those described in each of Test Examples except that DMSO is dispensed in place of a diluted DMSO solution containing the Present compound. The untreated groups in the Test Example 7 and the Test Example 15 represents a test in which the procedures are carried out under the same conditions as those described in each of the Test Examples except that DMSO is dispensed in place of a diluted DMSO solution containing the present compound. Also, the untreated groups in the Test Example 8, the Test Example 9, the Test Example 10 and the Test Example 11 represents a test in which a diluted aqueous solution of the formulation containing the present compound isn't sprayed.
The present compound 77 was diluted with DMSO so as to contain 150 ppm, and 1 μL of the dilution solutions were dispensed into titer plate (96 well), and thereafter, thereto was then dispensed 150 μL of YB liquid medium to which conidia of Cochliobolus miyabeanus were inoculated in advance. This plate was cultured at 23° C. for 3 days, thereby allowing Cochliobolus miyabeanus to undergo proliferation, and the absorbance at 550 nm of each well of the titer plate was then measured to determine a degree of growth of the Cochliobolus miyabeanus.

Measured: growth in the treated well compared to the growth in an untreated well

O=S(=O)(c1cccc(-c2cc(F)c(Cl)c(F)c2)c1)c1ccncn1 [compound 77]
≤ 50%: all assays above

From patent US20250212876A1, “METHOD FOR CONTROLLING PLANT DISEASES” (SUMITOMO CHEMICAL COMPANY, LIMITED, priority 2022, published 2025)
